Source: paper PMC4880925 (Scientific Reports, 2016)

Key:
[1] = target: T1, CYP144A1 (Mycobacterium tuberculosis, UniProt P9WPL1); assay type: binding
T1 construct: gene cyp144
Target sequence in this assay (P9WPL1 whole entry): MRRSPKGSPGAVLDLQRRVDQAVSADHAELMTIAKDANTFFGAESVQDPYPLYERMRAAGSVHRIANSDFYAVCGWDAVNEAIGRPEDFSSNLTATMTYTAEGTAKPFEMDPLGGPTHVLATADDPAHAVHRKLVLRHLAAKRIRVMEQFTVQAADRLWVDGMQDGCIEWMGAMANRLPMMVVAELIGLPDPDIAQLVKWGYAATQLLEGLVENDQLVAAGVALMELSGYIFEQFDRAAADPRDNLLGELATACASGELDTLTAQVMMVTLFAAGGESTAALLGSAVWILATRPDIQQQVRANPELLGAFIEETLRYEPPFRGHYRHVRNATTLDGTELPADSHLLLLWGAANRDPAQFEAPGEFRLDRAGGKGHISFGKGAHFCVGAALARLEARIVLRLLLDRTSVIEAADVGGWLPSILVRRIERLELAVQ

[2] = target: T1, CYP144A1; assay: […]; supported by EPR and DSC (Tm […] to […] °C); assay type: binding
Target sequence in this assay (P9WPL1 31-434): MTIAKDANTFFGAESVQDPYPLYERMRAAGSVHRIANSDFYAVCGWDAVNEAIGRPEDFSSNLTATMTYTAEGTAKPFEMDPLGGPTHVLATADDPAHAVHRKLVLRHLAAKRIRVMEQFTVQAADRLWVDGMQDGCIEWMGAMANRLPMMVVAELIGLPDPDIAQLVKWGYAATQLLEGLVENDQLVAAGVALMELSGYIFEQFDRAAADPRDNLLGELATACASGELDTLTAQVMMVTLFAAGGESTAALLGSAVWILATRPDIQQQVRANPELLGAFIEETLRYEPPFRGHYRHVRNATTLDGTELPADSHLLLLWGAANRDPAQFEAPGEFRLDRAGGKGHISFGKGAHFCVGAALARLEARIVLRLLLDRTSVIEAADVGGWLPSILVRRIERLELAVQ

| Structure (SMILES) | differential scanning calorimetry, Tm raised from 47 to 50 °C [1] | Kd [2] |
| --- | --- | --- |
| Clc1ccccc1C(c1ccccc1)(c1ccccc1)n1ccnc1 [clotrimazole] | 50 °C | – |
| Clc1ccc(COC(Cn2ccnc2)c2ccc(Cl)cc2Cl)cc1 (centres unmarked) [econazole] | – | 720 ± 180 nM |
